Assay results taken from patent publication US20060122201A1, “Uracil-thioether” (priority 2002, published 2006).

These compounds were tested against T1, Pol III (PolC) from S. aureus (Staphylococcus aureus, UniProt P0C1P9) (assay: Determination of the IC50 for Polymerase III (PolC), coupled pyrophosphate/ATP sulfurylase/luciferase assay). Settings: purified His-tagged PolC 2 nM, activated calf thymus DNA, 30° C. 30 min, luminescence readout.
T1 construct: His tag (pET15b vector) (N); made in house; host or cells: E. coli BL21(DE3)
T1 sequence (P0C1P9 1-1435): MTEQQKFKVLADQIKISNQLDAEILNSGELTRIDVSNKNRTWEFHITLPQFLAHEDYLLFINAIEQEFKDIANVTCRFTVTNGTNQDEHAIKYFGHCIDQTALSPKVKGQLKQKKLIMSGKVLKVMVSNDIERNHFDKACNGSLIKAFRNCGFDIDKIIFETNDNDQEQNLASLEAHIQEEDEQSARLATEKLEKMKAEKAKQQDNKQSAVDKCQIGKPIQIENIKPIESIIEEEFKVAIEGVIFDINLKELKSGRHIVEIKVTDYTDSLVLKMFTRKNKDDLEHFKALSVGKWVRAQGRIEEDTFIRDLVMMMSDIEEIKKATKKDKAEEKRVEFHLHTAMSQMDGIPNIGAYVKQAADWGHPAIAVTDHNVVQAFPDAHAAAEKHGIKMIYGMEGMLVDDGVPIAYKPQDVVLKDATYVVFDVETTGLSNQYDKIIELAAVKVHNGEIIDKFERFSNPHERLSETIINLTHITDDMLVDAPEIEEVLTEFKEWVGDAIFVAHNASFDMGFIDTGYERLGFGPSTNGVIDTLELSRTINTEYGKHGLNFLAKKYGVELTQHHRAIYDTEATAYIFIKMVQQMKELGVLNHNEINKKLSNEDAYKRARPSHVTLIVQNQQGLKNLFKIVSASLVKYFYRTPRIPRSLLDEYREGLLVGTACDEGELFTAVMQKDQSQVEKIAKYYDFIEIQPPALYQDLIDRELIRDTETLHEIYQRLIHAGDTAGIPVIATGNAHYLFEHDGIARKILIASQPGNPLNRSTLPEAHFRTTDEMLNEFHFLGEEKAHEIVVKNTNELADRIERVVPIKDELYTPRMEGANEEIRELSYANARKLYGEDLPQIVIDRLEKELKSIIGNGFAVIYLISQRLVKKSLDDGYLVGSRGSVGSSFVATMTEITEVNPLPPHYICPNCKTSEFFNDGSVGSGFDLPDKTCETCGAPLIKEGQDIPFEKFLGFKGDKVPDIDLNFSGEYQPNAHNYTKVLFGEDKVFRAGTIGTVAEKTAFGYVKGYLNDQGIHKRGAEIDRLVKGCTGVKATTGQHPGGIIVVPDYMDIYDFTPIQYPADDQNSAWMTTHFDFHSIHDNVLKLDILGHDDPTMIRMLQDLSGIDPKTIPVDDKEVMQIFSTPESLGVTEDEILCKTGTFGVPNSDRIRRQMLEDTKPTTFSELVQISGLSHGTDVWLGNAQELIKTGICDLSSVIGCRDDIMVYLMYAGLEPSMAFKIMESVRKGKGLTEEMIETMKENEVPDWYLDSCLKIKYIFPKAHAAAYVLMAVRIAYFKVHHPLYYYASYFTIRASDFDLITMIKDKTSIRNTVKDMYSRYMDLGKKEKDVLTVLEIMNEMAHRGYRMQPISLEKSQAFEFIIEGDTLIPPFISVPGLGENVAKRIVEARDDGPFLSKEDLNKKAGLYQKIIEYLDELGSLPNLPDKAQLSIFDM
Assay type: biochemical
Text: Cloning, Expression and Purification of Pol III from S. aureus
To clone polC with an N-terminal His tag, the structural gene polC is amplified from S. aureus genomic DNA with the aid of PCR. The primers SAPol 31 5′-[…]-3′ and SAPolrev 5′-[…]-3′ are used to introduce the NdeI and BamHI restriction cleavage sites respectively in front of and behind the amplified gene. After the PCR product which is 4300 bp in size has been digested with NdeI and BamHI, it is ligated into the vector pET15b (Novagen, USA), which has likewise been digested with NdeI and BamHI, and transformed into E. coli XL-1 Blue.
After transformation into E. coli BL21(DE3), the cells are cultivated for expression of PolC at 30° C. in LB medium with 100 μg/ml ampicillin until the OD595nm is 0.5, cooled to 18° C. and, after addition of 1 mM IPTG, incubated for a further 20 hours. The cells are harvested by centrifugation, washed once in PBS with 1 mM PMSF and taken up in 50 mM NaH2PO4 pH 8.0, 10 mM imidazole, 2 mM β-mercaptoethanol, 1 mM PMSF, 20% glycerol. The cells are disrupted using a French press at 12,000 psi, the cell detritus is removed by centrifugation (27,000×g, 120 min, 4° C.) and the supernatant is stirred with an appropriate amount of Ni-NTA-agarose (from Quiagen, Germany) at 4° C. for 1 hour. After the gel matrix has been packed into a column it is washed with 50 mM NaH2PO4 pH 8.0, 2 mM β-mercaptoethanol, 20 mM imidazole, 10% glycerol, and the purified protein is then eluted with the same buffer containing 100 mM imidazole. The purified protein is mixed with 50% glycerol and stored at −20° C.
Determination of the IC50 for Polymerase III
The activity of PolC is measured in an enzymatically coupled reaction, with the pyrophosphate formed during the polymerization being converted with the aid of ATP sulfurylase into ATP, which is detected using firefly luciferase. The reaction mixture contains, in a final volume of 50 μl, 50 mM Tris/Cl pH 7.5; 5 mM DTT, 10 mM MgCl2, 30 mM NaCl, 0.1 mg/ml BSA, 10% glycerol, 20 μM each DATP, dTTP, dCTP, 2 U/ml activated calf thymus DNA (from Worthington, USA), 20 μM APS and 0.06 mM luciferin. The reaction is started by adding purified PolC in a final concentration of 2 nM and is incubated at 30° C. for 30 min. The amount of pyrophosphate formed is then converted into ATP by adding ATP sulfurylase (Sigma, USA) in a final concentration of 5 nM and incubating at 30° C. for 15 min. After addition of 0.2 nM firefly luciferase, the luminescence is measured in a luminometer for 60 s. The IC50 is reported as the concentration of an inhibitor which leads to 50% inhibition of the enzymic activity of PolC.
`CCc1cc(Nc2cc(=O)n(CCSCc3nnc(C)s3)c(=O)[nH]2)ccc1C` [Example 16] showed an IC50 of 50 nM. With `CCc1cc(Nc2cc(=O)n(CCCSCC(=O)N3CCN(c4ccc(F)cc4)CC3)c(=O)[nH]2)ccc1C` [Example 47] the IC50 was 400 nM. In the case of `CCc1cc(Nc2cc(=O)n(CCSCc3c(C)noc3C)c(=O)[nH]2)ccc1C` [Example 42], the IC50 is reported as 80 nM. With `CCc1cc(Nc2cc(=O)n(CCSCC(=O)N3CCN(c4ccc([N+](=O)[O-])cc4)CC3)c(=O)[nH]2)ccc1C` [Example 34] the IC50 was 300 nM. Work on `CSc1nnc(CSCCn2c(=O)cc(Nc3ccc4c(c3)CCC4)[nH]c2=O)s1` [Example 15] yielded an IC50 of 110 nM.
